Assay results taken from patent publication US20230303549A1, “SUBSTITUTED HETEROARYLOXYPYRIDINES, THE SALTS THEREOF AND THEIR USE AS HERBICIDAL AGENTS” (Bayer Aktiengesellschaft, priority 2020, published 2023).

What was measured:
Assay type in all cases: in vivo
[1] = test system: Abutilon theophrasti (ABUTH); assay: Post-emergence herbicidal efficacy at 320 g/ha, greenhouse pot test; details: visual rating vs untreated control after about 3 weeks
Description: (§1) Seeds of mono- and dicotyledonous weed plants were placed in plastic pots in sandy loam soil (doubly sown with in each case one species of mono- or dicotyledonous weed plants per pot), covered with soil and cultivated in a greenhouse under controlled growth conditions. 2 to 3 weeks after sowing, the test plants were treated at the one-leaf stage. The compounds of the invention, formulated in the form of wettable powders (WP) or as emulsion concentrates (EC), were applied onto the green parts of the plants as aqueous suspension or emulsion with addition of 0.5% additive at a water application rate of 600 liters per hectare (converted). After the test plants had been kept in the greenhouse under optimum growth conditions for about 3 weeks, the activity of the preparations was rated visually in comparison to untreated controls. For example, 100% activity=the plants have died, 0% activity=like control plants. Tables […] 11 below show the effects of selected compounds of the general formula (I) according to Table 1 on various harmful plants and an application rate corresponding to 320 g/ha, which were obtained by the experimental procedure mentioned above.

[2] = test system: Alopecurus myosuroides (ALOMY); assay: as above; details: visual rating vs untreated control after about 3 weeks
Description: as §1

[3] = test system: Amaranthus retroflexus (AMARE); assay: as above; details: visual rating vs untreated control after about 3 weeks
Description: as §1

[4] = test system: Bassia scoparia (KCHSC); assay: as above; details: visual rating vs untreated control after about 3 weeks
Description: as §1

[5] = test system: Poa annua (POAAN); assay: as above; details: visual rating vs untreated control after about 3 weeks
Description: as §1

[6] = test system: Stellaria media (STEME); assay: as above; details: visual rating vs untreated control after about 3 weeks
Description: as §1

[7] = test system: Veronica persica (VERPE); assay: as above; details: 320 g/ha, visual rating vs untreated control after about 3 weeks
Description: as §1

[8] = test system: Amaranthus retroflexus (AMARE); assay: Post-emergence herbicidal efficacy at 80 g/ha, greenhouse pot test; details: visual rating vs untreated control after about 3 weeks
Description: (§2) Seeds of monocotyledonous and dicotyledonous weeds and crop plants were placed in sandy loam in plastic or organic planting pots, covered with soil and cultivated in a greenhouse under controlled growth conditions. 2 to 3 weeks after sowing, the test plants were treated at the one-leaf stage. The compounds of the invention, formulated in the form of wettable powders (WP) or as emulsion concentrates (EC), were then sprayed onto the green parts of the plants as aqueous suspension or emulsion with addition of 0.5% additive at a water application rate of 600 l/ha (converted). After the test plants had been kept in the greenhouse under optimum growth conditions for about 3 weeks, the activity of the preparations was rated visually in comparison to untreated controls. For example, 100% activity=the plants have died, 0% activity=like control plants. Tables B1 to B6 below show the effects of selected compounds of the general formula (I) according to Table 1 on various harmful plants and an application rate corresponding to 80 g/ha, which were obtained by the experimental procedure mentioned above.

[9] = test system: Viola tricolor (VIOTR); assay: as above; details: visual rating vs untreated control after about 3 weeks
Description: as §2

[10] = test system: Abutilon theophrasti (ABUTH); assay: Pre-emergence herbicide efficacy at 320 g/ha, greenhouse pot test; details: visual scoring vs untreated control after about 3 weeks
Source text: (§3) Seeds of mono- and dicotyledonous weed plants were placed in plastic pots in sandy loam soil (doubly sown with in each case one species of mono- or dicotyledonous weed plants per pot) and covered with soil. The compounds of the invention, formulated in the form of wettable powders (WP) or as emulsion concentrates (EC), were then applied onto the surface of the covering soil as aqueous suspension or emulsion with addition of 0.5% additive at a water application rate of 600 liters per hectare (converted). After the treatment, the pots were placed in a greenhouse and kept under good growth conditions for the test plants. After about 3 weeks, the effect of the preparations was scored visually in comparison with untreated controls as percentages. For example, 100% activity=the plants have died, 0% activity=like control plants. Tables C1 to C12 below show the effects of selected compounds of the general formula (I) according to Table 1 on various harmful plants and an application rate corresponding to 320 g/ha, which were obtained by the experimental procedure mentioned above.

[11] = test system: Alopecurus myosuroides (ALOMY); assay: as above; details: visual scoring vs untreated control after about 3 weeks
Source text: as §3

[12] = test system: Amaranthus retroflexus (AMARE); assay: as above; details: visual scoring vs untreated control after about 3 weeks
Source text: as §3

[13] = test system: Bassia scoparia (KCHSC); assay: as above
Source text: as §3

[14] = test system: Echinochloa crus-galli (ECHCG); assay: as above; details: visual scoring vs untreated control after about 3 weeks
Source text: as §3

[15] = test system: Lolium rigidum (LOLRI); assay: as above; details: visual scoring vs untreated control after about 3 weeks
Source text: as §3

[16] = test system: Matricaria inodora (MATIN); assay: as above; details: visual scoring vs untreated control after about 3 weeks
Source text: as §3

[17] = test system: Poa annua (POAAN); assay: as above; details: visual scoring vs untreated control after about 3 weeks
Source text: as §3

[18] = test system: Setaria viridis (SETVI); assay: as above; details: visual scoring vs untreated control after about 3 weeks
Source text: as §3

[19] = test system: Stellaria media (STEME); assay: as above; details: visual scoring vs untreated control after about 3 weeks
Source text: as §3

[20] = test system: Veronica persica (VERPE); assay: as above; details: visual scoring vs untreated control after about 3 weeks
Source text: as §3

[21] = test system: Abutilon theophrasti (ABUTH); assay: Pre-emergence herbicide efficacy at 80 g/ha, greenhouse pot test; details: visual scoring vs untreated control after about 3 weeks
Source text: (§4) Seeds of monocotyledonous and dicotyledonous weed plants and crop plants were placed in plastic or organic planting pots and covered with soil. The compounds of the invention, formulated in the form of wettable powders (WP) or as emulsion concentrates (EC), were then applied to the surface of the covering soil as aqueous suspension or emulsion with addition of 0.5% additive at a water application rate of […] (converted). After the treatment, the pots were placed in a greenhouse and kept under good growth conditions for the test plants. After about 3 weeks, the effect of the preparations was scored visually in comparison with untreated controls as percentages. For example, 100% activity=the plants have died, 0% activity=like control plants. Tables D1 to D12 below show the effects of selected compounds of the general formula (I) according to Table 1 on various harmful plants and an application rate corresponding to 80 g/ha, which were obtained by the experimental procedure mentioned above.

[22] = test system: Alopecurus myosuroides (ALOMY); assay: as above; details: visual scoring vs untreated control after about 3 weeks
Source text: as §4

[23] = test system: Amaranthus retroflexus (AMARE); assay: as above; details: visual scoring vs untreated control after about 3 weeks
Source text: as §4

[24] = test system: Matricaria inodora (MATIN); assay: as above; details: visual scoring vs untreated control after about 3 weeks
Source text: as §4

[25] = test system: Polygonum convolvulus (POLCO); assay: as above; details: visual scoring vs untreated control after about 3 weeks
Source text: as §4

[26] = test system: Setaria viridis (SETVI); assay: as above; details: visual scoring vs untreated control after about 3 weeks
Source text: as §4

[27] = test system: Veronica persica (VERPE); assay: as above; details: visual scoring vs untreated control after about 3 weeks
Source text: as §4

[28] = test system: Viola tricolor (VIOTR); assay: as above; details: visual scoring vs untreated control after about 3 weeks
Source text: as §4

[29] = test system: Digitaria sanguinalis (DIGSA); assay: Pre-emergence herbicide efficacy at 320 g/ha, greenhouse pot test; details: visual scoring vs untreated control after about 3 weeks
Source text: as §3

[30] = test system: Veronica persica (VERPE); assay: Post-emergence herbicidal efficacy at 80 g/ha, greenhouse pot test; details: visual rating vs untreated control after about 3 weeks
Description: as §2

[31] = test system: Polygonum convolvulus (POLCO); assay: as above; details: visual rating vs untreated control after about 3 weeks
Description: as §2

[32] = 320 g/ha, visual scoring vs untreated control after about 3 weeks

Row | SMILES | Post-emergence efficacy against Abutilon theophrasti (ABUTH) [1] | Post-emergence efficacy against Amaranthus retroflexus (AMARE) [3] | Post-emergence efficacy against Bassia scoparia (KCHSC) [4] | Post-emergence action against Stellaria media (STEME) [6] | Post-emergence efficacy against Veronica persica (VERPE) [7] | Post-emergence efficacy against Amaranthus retroflexus (AMARE) [8] | Post-emergence efficacy against Viola tricolor (VIOTR) [9] | Pre-emergence efficacy against Abutilon theophrasti (ABUTH) [10] | Pre-emergence efficacy against Amaranthus retroflexus (AMARE) [12] | Pre-emergence efficacy against Matricaria inodora (MATIN) [16] | Pre-emergence efficacy against Setaria viridis (SETVI) [18] | Pre-emergence efficacy against Stellaria media (STEME) [19] | Pre-emergence efficacy against Veronica persica (VERPE) [20] | Pre-emergence efficacy against Abutilon theophrasti (ABUTH) [21] | Pre-emergence efficacy against Alopecurus myosuroides (ALOMY) [22] | Pre-emergence efficacy against Amaranthus retroflexus (AMARE) [23] | Pre-emergence efficacy against Polygonum convolvulus (POLCO) [25] | Pre-emergence efficacy against Setaria viridis (SETVI) [26] | Pre-emergence efficacy against Veronica persica (VERPE) [27] | Pre-emergence efficacy against Viola tricolor (VIOTR) [28] | other results
1 | Cc1cc(C)c(-c2cc(C(F)F)no2)c(Oc2ncc(Cl)cn2)n1 [Example I-1] | 90% | 100% | 90% | 100% | 100% | 100% | 90% | 100% | 100% | 100% | 100% | 100% | 100% | 80% | 90% | 100% | 90% | 80% | 90% | 90% | Post-emergence efficacy against Alopecurus myosuroides (ALOMY) [2]: 90%; Post-emergence efficacy against Poa annua (POAAN) [5]: 90%; Pre-emergence efficacy against Alopecurus myosuroides (ALOMY) [11]: 100%; Pre-emergence efficacy against Bassia scoparia (KCHSC) [13, 32]: 90%; Pre-emergence efficacy against Echinochloa crus-galli (ECHCG) [14]: 100%; Pre-emergence efficacy against Lolium rigidum (LOLRI) [15]: 90%; Pre-emergence efficacy against Poa annua (POAAN) [17]: 100%; Pre-emergence efficacy against Matricaria inodora (MATIN) [24]: 100%
2 | Cc1cc(C)c(-c2cc(C(F)(F)Cl)no2)c(Oc2ncc(Cl)cn2)n1 [Example I-8] | 90% | 100% | 90% | 90% | 100% | 100% | 90% | 100% | 100% | 100% | 90% | 100% | 100% | 100% | 90% | 100% | 90% | 100% | 80% | 90% | Post-emergence efficacy against Alopecurus myosuroides (ALOMY) [2]: 100%; Pre-emergence efficacy against Alopecurus myosuroides (ALOMY) [11]: 100%; Pre-emergence efficacy against Bassia scoparia (KCHSC) [13, 32]: 100%; Pre-emergence efficacy against Digitaria sanguinalis (DIGSA) [29]: 100%; Pre-emergence efficacy against Poa annua (POAAN) [17]: 100%
3 | Cc1cc(C)c(-c2cc(C(F)F)no2)c(Oc2ccc(C#N)cn2)n1 [Example I-292] | 90% | 100% | 90% | 100% | 100% | 90% | 90% | 90% | 100% | 100% | 90% | 100% | 90% |  | 80% | 100% |  |  | 90% | 90% | Post-emergence efficacy against Poa annua (POAAN) [5]: 100%; Post-emergence efficacy against Veronica persica (VERPE) [30]: 90%; Pre-emergence efficacy against Bassia scoparia (KCHSC) ([13]; dosage 1280 g/ha in Table C6, visual scoring after about 3 weeks): 100%
4 | Cc1cc(C)c(-c2cc(C(F)F)no2)c(Oc2ccc(F)cn2)n1 [Example I-293] |  |  |  |  |  | 100% |  |  |  |  |  |  |  | 90% | 90% | 100% | 80% | 100% | 80% | 90% | Post-emergence efficacy against Polygonum convolvulus (POLCO) [31]: 100%; Pre-emergence efficacy against Matricaria inodora (MATIN) [24]: 100%
